The experiment has as its target T1, NfsA (Escherichia coli, UniProt P17117).
T1 construct: untagged, dimer
T1 sequence (P17117 1-240): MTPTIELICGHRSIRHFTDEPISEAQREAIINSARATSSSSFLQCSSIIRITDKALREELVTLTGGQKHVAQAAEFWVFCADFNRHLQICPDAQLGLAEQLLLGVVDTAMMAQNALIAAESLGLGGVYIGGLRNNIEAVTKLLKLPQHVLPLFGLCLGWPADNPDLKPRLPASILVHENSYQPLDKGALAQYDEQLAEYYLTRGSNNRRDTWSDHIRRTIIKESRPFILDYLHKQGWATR
In words: X-ray crystal structure at […] Å with a second FMN as ligand; steady-state inhibition kinetics. The format is biochemical.

For one compound, Ki results are on record in PMC8286842, “The structures of E. coli NfsA bound to the antibiotic nitrofurantoin; to 1,4-benzoquinone and to FMN” (Biochemical Journal, 2021).

Take `Cc1cc2nc3c(=O)[nH]c(=O)nc-3n(C[C@H](O)[C@H](O)[C@H](O)COP(=O)(O)O)c2cc1C` [FMN]: the Ki (as a rule, a dissociation constant, usually derived from enzyme kinetics or from competition with a known ligand) is approximately 8 µM.
